Assay results published in paper PMC7381750, “JP1 suppresses proliferation and metastasis of melanoma through MEK1/2 mediated NEDD4L-SP1-Integrin αvβ3 signaling” (Theranostics, 2020).
Where “and” joins values, the source holds several entries; their conditions need not be identical. Equal values may be shown once. Entries after “also recorded” stand apart in the source; their conditions may differ. Non-standard residues stand in square brackets, D forms with d. Residues, ends and D or L forms follow the SMILES beside them. pS = N[C@@H](COP(=O)(O)O)C(=O)O

Experiments:
[1] = Cynomolgus monkey toxicity test: urinalysis; type: in vivo
Experimental: (§1) The test was completed by Suzhou Xishan Zhongke Drugs Research and Development Co., Ltd. (Xishan, Suzhou, China). The study proposal was approved by the Institute Animal Care and Use Committee (IACUC, ID19012912). Cynomolgus monkeys (3-4 years old) were randomly divided into three groups (n = 4 per group, half male and female); and the monkeys were treated with solvent control (Mannitol in saline, 75 mg/kg/d), JP1 (45 mg/kg/day) and JP1 (150 mg/kg/day) for 14 days. The experiment was ended on 15th day and the animals were euthanasia. The relevant clinical parameters were determined on 7th and 13th day, respectively. The observed parameters were including clinical symptoms, weight, food intake, body temperature, ophthalmology, electrocardiogram, blood routine examination, blood biochemistry, blood coagulation, urinalysis, immunotoxicity.
(§2) Supplementary database files: Cynomolgus monkey toxicity test […]
(§3) The study was conducted by a contract service in Suzhou Xishan Zhongke Drugs Research and Development Co., Ltd. (Xishan, Suzhou, China). All the use of animals were approved by the Institute Animal Care and Use Commttee, IACUC. IACUC no. :
(§4) ID19012912. The veterinarian will supervise the breeding and welfare of the animals. The company follows the Guide for the Care and Use of Laboratory Animals (8th ed., 2011).
(§5) Cynomolgus monkeys (3-4 years old) were randomly divided into three groups (n = 4 per group, two males and two females for each group); and treated q.d./i.v. with Mannitol (75 mg/kg/d in saline), JP1 (45 mg/kg/d) and JP1 (150 mg/kg/d) for 14 days, respectively. JP1 was dissolved in saline (100 mg/2 ml) and administered intravenously at a rate of 3 ml/min.
The JP1 was provided by Hybio Pharmaceutical Co., Ltd. (Shenzhen, China); the production of small packaging preparation (100 mg/vial in freeze-dried powder, purity > 98%; -20 °C for storage and transportation) was completed under strict GMP conditions and quality control procedures for biological preparations. No recovery period was set for this test; the experimental model was ended on 15th day. The relevant clinical indicators including symptoms, body weight, food intake, temperature, ophthalmology, electrocardiogram, blood routine examination, blood biochemistry, blood coagulation, urinalysis, immunotoxicity were determined on 7th and 13th, respectively. […]
(§6) indicators in all animals, and the pathological observation of organs was not determined. […]
(§7) relevant clinical indicators in two JP1 groups were no difference compared with those in […]
(§8) Level (NOAEL) of JP1 was 150 mg/kg.

[2] = Cynomolgus monkey toxicity test: body weight; type: in vivo
Experimental: as §1, §2, §3, §4, §5
The JP1 was provided by Hybio Pharmaceutical Co., Ltd. (Shenzhen, China); the production of small packaging preparation (100 mg/vial in freeze-dried powder, purity > 98%; -20 °C for storage and transportation) was completed under strict GMP conditions and quality control procedures for biological preparations. No recovery period was set for this test; the experimental model was ended on 15th day. […]
as §7, §8

[3] = 14-day cynomolgus monkey toxicity test (overall); type: in vivo
Experimental: as §1, with “The observed parameters were including clinical symptoms, weight, food intake, body temperature, ophthalmology, electrocardiogram, blood routine examination, blood biochemistry, blood coagulation, urinalysis, immunotoxicity.” left out
The JP1 was provided by Hybio Pharmaceutical Co., Ltd. (Shenzhen, China); the production of small packaging preparation (100 mg/vial in freeze-dried powder, purity > 98%; -20 °C for storage and transportation) was completed under strict GMP conditions and quality control procedures for biological preparations. […] The relevant clinical indicators including symptoms, body weight, food intake, temperature, ophthalmology, electrocardiogram, blood routine examination, blood biochemistry, blood coagulation, urinalysis, immunotoxicity were determined on 7th and 13th, respectively. […]
as §6

[4] = Preliminary pharmacokinetic analysis in SD rats
Experimental: The drug half-life (t1/2) is calculated by the formula t1/2 = 0.693/k, where k is the elimination rate constant (k = (Inc1-Inc2)/(t2-t1)).

[5] = JP1 45 mg/kg/d i.v., D7, monkeys 1105,1106,2107,2108
[6] = JP1 45 mg/kg/d i.v., D7, monkeys 1105,1106,2107,2108, 45 mg/kg/day
[7] = JP1 45 mg/kg/d i.v., D13, monkeys 1105,1106,2107,2108
[8] = JP1 45 mg/kg/d i.v., D13, monkeys 1105,1106,2107,2108, 45 mg/kg/day
[9] = JP1 150 mg/kg/d i.v., D7, monkeys 1209,1210,2211,2212
[10] = JP1 150 mg/kg/d i.v., D7, monkeys 1209,1210,2211,2212, 150 mg/kg/day
[11] = JP1 150 mg/kg/d i.v., D13, monkeys 1209,1210,2211,2212
[12] = JP1 150 mg/kg/d i.v., D13, monkeys 1209,1210,2211,2212, 150 mg/kg/day
[13] = male, Sprague-Dawley, rat, blood, ip, 100 mg/kg

## CC(=O)N[C@@H](Cc1ccccc1)C(=O)N1CCC[C@H]1C(=O)NCC(=O)N[C@@H](COP(=O)(O)O)C(=O)N[C@@H](CC(=O)O)C(=O)N[C@@H](CCCNC(=N)N)C(=O)N[C@@H](Cc1ccccc1)C(=O)NCC(=O)NCC(=O)NCC(=O)NCC(=O)N[C@@H](CCCNC(=N)N)C(=O)NCC(=O)N[C@@H](CC(=O)O)C(N)=O [JP1] (Ac-FPG[pS]DRFGGGGRGD-NH2)
[1]; [5]
  GLU (urine): NORMAL
  URO (Urobilinogen): NORMAL
[1]; [6]
  COL (urine): COLORLESS; also recorded: YELLOW
  SG (Urine specific gravity): 1.004 and 1.005 and 1.008 and 1.012
  pH (urine): 8.0 and 8.5
[1]; [7]
  COL (urine): COLORLESS
  GLU (urine): NORMAL
  URO (Urobilinogen): NORMAL
[1]; [8]
  SG (Urine specific gravity): 1.006 and 1.007 and 1.009
  pH (urine): 7.5 and 8.0 and 8.5
[1]; [9]
  GLU (urine): NORMAL
  URO (Urobilinogen): NORMAL
[1]; [10]
  COL (urine): LIGHT YELLOW; also recorded: COLORLESS
  SG (Urine specific gravity): 1.002 and 1.009 and 1.020 and 1.006
  pH (urine): 7.5 and 8.5
[1]; [11]
  GLU (urine): NORMAL
  LEU (Urine leukocyte): NEG.
  URO (Urobilinogen): NORMAL
[1]; [12]
  COL (urine): COLORLESS; also recorded: LIGHT YELLOW
  SG (Urine specific gravity): 1.004 and 1.013 and 1.005 and 1.009
  pH (urine): 8.0 and 8.5 and 7.5
[2]; [6]
  Body weight: 2.1 kg and 2.2 kg and 2.3 kg
[2]; JP1 45 mg/kg/d i.v., D14, monkeys 1105,1106,2107,2108, 45 mg/kg/day
  Body weight: 2.5 kg and 2.4 kg
[2]; [10]
  Body weight: 2.4 kg and 2.2 kg and 2.3 kg
[2]; JP1 150 mg/kg/d i.v., D14, monkeys 1209,1210,2211,2212, 150 mg/kg/day
  Body weight: 2.2 kg and 2.3 kg and 2.6 kg
[3]; I.V. 45 or 150 mg/kg/day for 14 days, compared to control
  changes in detected parameters (clinical symptoms, weight, food intake, body temperature, ophthalmology, ECG, blood, urinalysis, immune-toxicity): no significant changes in all detected parameters
[3]; both sexes, in vivo, iv, 14 days, read-out: no observed adverse effect level (NOAEL)
  NOAEL at 14 days: 150 mg/kg
[4]; SD rats, 100 mg/kg i.p., from 0.25 h and 1 h concentrations
  elimination rate constant k: 0.526
[4]; [13]
  level at 0.25 h: 20500 ng/mL
  level at 1 h: 13800 ng/mL
